Activity calls are given as the source filed them.
Experiments:
[1] = target: T1, Corticotropin-releasing factor receptor 2/Corticotropin-releasing factor-binding protein (Homo sapiens, UniProt P24387+Q13324); assay: activators of CRF receptor 2 with binding protein – uHTS hits, confirmation (AID 602473); type: functional; conditions: read-out: EC50_Mean
T1 sequence (Q13324 whole entry): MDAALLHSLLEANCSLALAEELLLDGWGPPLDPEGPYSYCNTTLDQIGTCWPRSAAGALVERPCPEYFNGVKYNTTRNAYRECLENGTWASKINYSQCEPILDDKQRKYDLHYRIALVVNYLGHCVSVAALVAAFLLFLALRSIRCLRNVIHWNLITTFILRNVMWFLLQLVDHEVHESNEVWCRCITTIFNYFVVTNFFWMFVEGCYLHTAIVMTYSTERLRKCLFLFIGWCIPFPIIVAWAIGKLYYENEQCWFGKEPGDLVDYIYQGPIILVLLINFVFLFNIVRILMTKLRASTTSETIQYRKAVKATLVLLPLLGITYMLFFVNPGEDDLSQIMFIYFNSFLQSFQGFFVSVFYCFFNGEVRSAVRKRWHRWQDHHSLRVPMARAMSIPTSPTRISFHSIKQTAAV
T1 sequence (P24387 whole entry): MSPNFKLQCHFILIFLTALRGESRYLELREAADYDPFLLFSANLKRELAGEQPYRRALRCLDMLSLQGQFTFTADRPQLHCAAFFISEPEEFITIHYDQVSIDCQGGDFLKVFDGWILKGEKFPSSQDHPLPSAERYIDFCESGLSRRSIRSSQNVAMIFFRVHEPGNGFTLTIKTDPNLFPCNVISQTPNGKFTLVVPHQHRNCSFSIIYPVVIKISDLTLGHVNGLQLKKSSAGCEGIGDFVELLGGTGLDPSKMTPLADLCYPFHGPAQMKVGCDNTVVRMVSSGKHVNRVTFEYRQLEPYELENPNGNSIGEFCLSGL

ORF 73 = target: T2, ORF 73 (Human herpesvirus 8, UniProt O40947); assay: KSHV LANA DNA-binding disruption – biochemical, fluorescence polarization, cherry-picked samples, dose response (AID 504725); set-up: species or system Human gammaherpesvirus 8;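 note: fluorescence polarization of a labeled DNA duplex reporting LANA DNA binding; potency is for inhibitors that block LANA binding to the DNA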
T2 sequence (O40947 whole entry): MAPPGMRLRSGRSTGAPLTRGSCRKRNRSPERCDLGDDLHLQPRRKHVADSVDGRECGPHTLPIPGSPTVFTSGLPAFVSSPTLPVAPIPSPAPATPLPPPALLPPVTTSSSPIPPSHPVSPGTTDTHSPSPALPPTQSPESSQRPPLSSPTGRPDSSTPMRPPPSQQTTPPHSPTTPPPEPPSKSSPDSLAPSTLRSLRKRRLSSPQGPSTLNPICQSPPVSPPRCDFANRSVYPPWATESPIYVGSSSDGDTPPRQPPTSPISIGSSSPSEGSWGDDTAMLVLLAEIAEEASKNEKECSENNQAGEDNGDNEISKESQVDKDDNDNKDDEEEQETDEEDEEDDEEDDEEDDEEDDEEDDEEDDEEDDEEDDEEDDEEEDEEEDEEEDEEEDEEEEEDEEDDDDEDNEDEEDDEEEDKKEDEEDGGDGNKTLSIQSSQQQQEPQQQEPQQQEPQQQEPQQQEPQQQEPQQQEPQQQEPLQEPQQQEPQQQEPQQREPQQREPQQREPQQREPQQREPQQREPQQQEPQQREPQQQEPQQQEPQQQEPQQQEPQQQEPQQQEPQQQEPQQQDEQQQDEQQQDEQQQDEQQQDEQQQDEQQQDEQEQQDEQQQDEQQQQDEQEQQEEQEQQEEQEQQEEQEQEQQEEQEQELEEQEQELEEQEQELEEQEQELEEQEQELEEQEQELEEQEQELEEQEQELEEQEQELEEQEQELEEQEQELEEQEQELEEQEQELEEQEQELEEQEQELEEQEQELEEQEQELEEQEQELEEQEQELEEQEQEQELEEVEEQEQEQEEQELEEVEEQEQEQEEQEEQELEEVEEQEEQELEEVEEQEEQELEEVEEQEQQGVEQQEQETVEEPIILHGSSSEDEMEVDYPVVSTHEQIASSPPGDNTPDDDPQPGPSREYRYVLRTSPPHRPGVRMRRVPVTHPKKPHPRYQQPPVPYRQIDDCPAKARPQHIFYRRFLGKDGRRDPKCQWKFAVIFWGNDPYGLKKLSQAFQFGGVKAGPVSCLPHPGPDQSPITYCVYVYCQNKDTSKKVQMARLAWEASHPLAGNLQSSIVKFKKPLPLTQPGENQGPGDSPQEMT

Keap1/Nrf2 = Keap1/Nrf2 (Homo sapiens, UniProt Q14145); assay: disruptors of Keap1 binding to Nrf2 peptide – biochemical, fluorescence polarization, cherry-picked samples, dose response (AID 588683)
Chain of Keap1/Nrf2 (Q16236 whole entry): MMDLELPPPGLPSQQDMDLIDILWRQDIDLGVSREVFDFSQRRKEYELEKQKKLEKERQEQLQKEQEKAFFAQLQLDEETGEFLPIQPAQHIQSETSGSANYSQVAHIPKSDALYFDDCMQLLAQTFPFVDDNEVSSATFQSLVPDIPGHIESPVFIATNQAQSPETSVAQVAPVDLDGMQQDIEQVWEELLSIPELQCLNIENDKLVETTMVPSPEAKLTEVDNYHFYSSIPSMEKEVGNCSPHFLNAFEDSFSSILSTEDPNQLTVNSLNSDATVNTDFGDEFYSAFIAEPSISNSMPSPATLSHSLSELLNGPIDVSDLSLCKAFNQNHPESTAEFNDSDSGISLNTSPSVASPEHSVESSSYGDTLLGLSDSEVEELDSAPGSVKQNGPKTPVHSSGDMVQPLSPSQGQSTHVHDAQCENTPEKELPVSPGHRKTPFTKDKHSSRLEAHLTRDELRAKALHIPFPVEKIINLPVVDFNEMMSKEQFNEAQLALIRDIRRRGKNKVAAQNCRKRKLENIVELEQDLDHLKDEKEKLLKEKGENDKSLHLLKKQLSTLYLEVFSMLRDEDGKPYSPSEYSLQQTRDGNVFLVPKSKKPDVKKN
Chain of Keap1/Nrf2 (Q14145 whole entry): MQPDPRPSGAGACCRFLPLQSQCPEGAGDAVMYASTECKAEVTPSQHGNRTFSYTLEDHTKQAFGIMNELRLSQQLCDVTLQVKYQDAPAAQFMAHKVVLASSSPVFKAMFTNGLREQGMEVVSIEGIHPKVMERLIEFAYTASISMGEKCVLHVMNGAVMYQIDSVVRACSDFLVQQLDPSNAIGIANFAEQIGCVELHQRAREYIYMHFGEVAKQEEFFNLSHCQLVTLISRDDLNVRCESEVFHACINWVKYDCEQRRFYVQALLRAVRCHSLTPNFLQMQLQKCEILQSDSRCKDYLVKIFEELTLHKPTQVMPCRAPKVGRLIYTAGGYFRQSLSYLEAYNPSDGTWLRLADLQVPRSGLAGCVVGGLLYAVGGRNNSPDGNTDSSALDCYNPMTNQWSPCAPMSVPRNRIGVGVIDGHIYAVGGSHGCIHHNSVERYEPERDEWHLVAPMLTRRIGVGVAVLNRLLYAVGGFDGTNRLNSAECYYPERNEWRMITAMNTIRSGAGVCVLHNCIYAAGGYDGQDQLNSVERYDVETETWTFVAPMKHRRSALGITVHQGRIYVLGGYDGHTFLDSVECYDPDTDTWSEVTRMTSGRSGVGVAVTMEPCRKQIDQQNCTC

[2] = target: T3, Small ubiquitin-related modifier 1 (Homo sapiens, UniProt P63165); assay: SUMO1 protein-protein binding blockers, potency – biochemical, FRET, dose response (AID 624383); type: functional; conditions: read-out: IC50_Mean
T3 sequence (P63165 whole entry): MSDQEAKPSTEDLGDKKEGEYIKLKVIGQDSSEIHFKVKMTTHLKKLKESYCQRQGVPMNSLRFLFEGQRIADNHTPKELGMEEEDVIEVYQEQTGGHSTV

[3] = target: DNA dC->dU-editing enzyme APOBEC-3G (Homo sapiens, UniProt Q9HC16); assay: Dose Response confirmation of small molecule APOBEC3G DNA Deaminase Inhibitors via a fluorescence-based single-stranded DNA deaminase assay. [Related pubchem assays (depositor defined):AID493012, AID493028]; type: functional
Chain of DNA dC->dU-editing enzyme APOBEC-3G (Q9HC16 whole entry): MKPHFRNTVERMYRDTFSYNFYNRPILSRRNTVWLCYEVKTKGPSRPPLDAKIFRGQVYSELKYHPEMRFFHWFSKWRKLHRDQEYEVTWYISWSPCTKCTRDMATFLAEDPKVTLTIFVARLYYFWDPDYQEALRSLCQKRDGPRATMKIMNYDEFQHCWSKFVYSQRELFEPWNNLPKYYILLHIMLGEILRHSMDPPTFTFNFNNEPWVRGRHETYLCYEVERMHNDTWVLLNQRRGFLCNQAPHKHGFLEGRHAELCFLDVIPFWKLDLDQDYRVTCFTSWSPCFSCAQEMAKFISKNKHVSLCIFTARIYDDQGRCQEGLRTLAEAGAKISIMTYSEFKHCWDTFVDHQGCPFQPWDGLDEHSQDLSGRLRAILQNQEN

[4] = target: T3, Small ubiquitin-related modifier 1; assay: SUMO1 protein interaction blockers, potency – biochemical, fluorescence polarization, uHTS hits, dose response (AID 624382); type: functional; conditions: read-out: IC50_Mean
[5] = target: T4, Apoptotic protease-activating factor 1 (Homo sapiens, UniProt O14727); assay: activation of Apaf-1 mediated apoptosis – fluorescent, uHTS hits, dose response (AID 588554); type: functional
T4 sequence (O14727 whole entry): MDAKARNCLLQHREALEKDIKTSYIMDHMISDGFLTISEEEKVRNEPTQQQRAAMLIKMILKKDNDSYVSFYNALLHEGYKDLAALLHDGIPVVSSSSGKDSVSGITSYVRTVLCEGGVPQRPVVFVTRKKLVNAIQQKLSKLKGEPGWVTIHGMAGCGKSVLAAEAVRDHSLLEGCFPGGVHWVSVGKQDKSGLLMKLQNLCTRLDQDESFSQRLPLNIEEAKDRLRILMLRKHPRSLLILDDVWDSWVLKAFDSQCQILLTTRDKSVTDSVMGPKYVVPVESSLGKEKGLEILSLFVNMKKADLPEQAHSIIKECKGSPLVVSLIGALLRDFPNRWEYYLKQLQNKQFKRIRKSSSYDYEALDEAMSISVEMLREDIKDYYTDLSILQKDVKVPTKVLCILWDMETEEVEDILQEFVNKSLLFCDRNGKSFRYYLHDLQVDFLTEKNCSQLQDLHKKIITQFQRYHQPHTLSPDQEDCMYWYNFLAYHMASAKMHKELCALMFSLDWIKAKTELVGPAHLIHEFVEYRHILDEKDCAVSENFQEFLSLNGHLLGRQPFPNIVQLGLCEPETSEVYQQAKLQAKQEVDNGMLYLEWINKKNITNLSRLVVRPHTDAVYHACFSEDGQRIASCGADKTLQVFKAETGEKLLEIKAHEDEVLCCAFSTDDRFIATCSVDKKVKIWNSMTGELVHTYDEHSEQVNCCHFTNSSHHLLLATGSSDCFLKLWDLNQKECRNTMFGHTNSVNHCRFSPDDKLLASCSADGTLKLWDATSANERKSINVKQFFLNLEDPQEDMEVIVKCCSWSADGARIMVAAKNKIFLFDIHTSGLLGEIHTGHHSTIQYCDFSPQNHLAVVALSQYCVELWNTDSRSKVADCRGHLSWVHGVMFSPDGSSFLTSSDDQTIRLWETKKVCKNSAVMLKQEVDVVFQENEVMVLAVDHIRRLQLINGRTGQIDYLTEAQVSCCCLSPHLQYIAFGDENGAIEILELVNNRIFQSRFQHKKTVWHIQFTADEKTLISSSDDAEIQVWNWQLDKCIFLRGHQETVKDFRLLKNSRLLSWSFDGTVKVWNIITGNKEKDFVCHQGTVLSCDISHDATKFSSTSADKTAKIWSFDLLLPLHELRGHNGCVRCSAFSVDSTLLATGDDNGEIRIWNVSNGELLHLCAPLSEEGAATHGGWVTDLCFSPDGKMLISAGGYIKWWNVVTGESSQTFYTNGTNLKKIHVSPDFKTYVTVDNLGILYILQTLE

[6] = target: DNA dC->dU-editing enzyme APOBEC-3A (Homo sapiens, UniProt P31941); assay: A3A deaminase inhibition for selectivity – biochemical, dose response (AID 504722); type: functional
Chain of DNA dC->dU-editing enzyme APOBEC-3A (P31941 whole entry, the tested form may be a part): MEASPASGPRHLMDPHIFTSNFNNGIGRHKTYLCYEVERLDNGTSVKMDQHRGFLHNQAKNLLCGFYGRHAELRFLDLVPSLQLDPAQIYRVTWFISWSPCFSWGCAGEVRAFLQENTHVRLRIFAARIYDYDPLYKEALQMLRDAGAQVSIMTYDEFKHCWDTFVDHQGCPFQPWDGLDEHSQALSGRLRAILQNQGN

[7] = target: T5, Carboxy-terminal domain RNA polymerase II polypeptide A small phosphatase 1 (Homo sapiens, UniProt Q9GZU7); assay: CTDSP1 inhibitors, concentration-response, biochemical, absorbance readout, ultra-high-throughput screen actives (AID 540297); type: functional
T5 sequence (Q9GZU7 whole entry): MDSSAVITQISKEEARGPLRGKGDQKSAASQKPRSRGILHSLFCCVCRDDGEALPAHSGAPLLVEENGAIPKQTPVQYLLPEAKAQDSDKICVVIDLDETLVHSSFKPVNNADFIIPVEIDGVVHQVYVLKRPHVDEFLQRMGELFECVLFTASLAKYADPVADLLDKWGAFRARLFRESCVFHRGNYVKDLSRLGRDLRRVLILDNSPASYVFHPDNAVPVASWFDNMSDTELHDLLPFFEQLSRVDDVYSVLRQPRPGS

Hexokinase-1 = target: T6, Hexokinase-1 (Homo sapiens, UniProt P19367); assay: SAR analysis of small molecule inhibitors of hexokinase domain containing I (HKDC1) in the hexokinase 1 selectivity assay. [Related pubchem assays (depositor defined):AID493160, AID493190]; type: functional
T6 sequence (P19367 whole entry): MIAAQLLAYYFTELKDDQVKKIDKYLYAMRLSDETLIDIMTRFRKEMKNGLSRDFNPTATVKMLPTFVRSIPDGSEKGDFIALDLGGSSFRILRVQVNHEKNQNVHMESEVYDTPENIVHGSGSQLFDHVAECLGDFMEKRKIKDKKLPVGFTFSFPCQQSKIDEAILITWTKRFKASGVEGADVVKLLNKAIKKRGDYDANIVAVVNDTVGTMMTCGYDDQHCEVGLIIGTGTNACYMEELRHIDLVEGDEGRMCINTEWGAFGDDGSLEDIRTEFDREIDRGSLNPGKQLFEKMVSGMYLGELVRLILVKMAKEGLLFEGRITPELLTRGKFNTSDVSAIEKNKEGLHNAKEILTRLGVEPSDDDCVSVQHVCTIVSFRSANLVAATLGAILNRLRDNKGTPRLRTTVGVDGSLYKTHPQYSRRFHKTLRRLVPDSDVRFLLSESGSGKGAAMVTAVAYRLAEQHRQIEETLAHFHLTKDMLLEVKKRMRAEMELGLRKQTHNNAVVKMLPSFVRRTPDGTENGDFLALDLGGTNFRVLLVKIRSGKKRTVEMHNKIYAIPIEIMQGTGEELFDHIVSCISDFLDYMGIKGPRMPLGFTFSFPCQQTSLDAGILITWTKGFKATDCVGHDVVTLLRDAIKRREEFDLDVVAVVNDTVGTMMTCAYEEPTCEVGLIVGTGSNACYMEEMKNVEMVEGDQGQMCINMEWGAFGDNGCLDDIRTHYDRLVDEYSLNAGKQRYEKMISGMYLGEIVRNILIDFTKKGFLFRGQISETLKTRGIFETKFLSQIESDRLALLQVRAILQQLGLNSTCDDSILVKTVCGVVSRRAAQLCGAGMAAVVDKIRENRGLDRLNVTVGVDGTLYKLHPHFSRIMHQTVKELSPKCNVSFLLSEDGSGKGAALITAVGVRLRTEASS

Hexokinase HKDC1 = target: T7, Hexokinase HKDC1 (Homo sapiens, UniProt Q2TB90); assay: SAR analysis of small molecule inhibitors of hexokinase domain containing I (HKDC1). [Related pubchem assays (depositor defined):AID493160, AID493190]; type: functional
T7 sequence (Q2TB90 whole entry): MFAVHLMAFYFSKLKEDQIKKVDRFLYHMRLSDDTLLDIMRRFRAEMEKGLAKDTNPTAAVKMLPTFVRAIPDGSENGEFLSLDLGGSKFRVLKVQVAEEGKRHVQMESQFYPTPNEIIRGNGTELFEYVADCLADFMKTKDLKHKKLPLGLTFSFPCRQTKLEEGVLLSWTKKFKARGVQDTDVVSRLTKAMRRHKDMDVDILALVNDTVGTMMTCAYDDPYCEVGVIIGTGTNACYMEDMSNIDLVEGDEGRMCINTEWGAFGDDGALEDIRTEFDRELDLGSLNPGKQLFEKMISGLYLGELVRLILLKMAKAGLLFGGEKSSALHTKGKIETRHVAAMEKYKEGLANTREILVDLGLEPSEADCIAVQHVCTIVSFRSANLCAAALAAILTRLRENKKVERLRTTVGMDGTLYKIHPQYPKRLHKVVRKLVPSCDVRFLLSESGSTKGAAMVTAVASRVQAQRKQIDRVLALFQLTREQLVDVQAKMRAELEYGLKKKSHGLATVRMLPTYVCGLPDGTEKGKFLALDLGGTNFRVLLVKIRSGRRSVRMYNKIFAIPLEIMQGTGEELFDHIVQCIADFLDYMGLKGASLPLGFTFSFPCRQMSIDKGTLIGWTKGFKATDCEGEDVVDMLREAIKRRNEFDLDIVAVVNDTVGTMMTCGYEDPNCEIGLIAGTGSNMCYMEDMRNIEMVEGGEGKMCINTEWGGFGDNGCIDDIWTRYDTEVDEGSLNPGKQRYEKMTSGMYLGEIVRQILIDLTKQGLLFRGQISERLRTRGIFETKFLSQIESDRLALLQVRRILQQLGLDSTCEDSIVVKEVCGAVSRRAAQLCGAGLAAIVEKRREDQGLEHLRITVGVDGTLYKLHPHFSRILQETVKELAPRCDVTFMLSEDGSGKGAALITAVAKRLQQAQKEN

CCC1(c2ccccc2)NC(=O)N(CC(=O)Nc2ccc(OC)nc2)C1=O (stereo not drawn)
EC50 [1]: 18.6 µM (active)
AC50 (ORF 73): 8.04 µM (active)
AC50 (Keap1/Nrf2): 5.31 µM (active)

Cc1cc[n+](-c2[n-]c(=O)sc2/C=N/NC(=O)c2ccccc2)cc1C
AC50 (ORF 73): 13.3 µM (active)
AC50 (Keap1/Nrf2): 11.8 µM (active)

C=C(C)C(=O)Nc1cccc(C2=NOC3(C2)C[C@@H](C(N)=O)N(C(=O)c2cc([N+](=O)[O-])cc([N+](=O)[O-])c2C)C3)c1 (stereo partly drawn)
IC50 [2]: 8.54 µM (active)
IC50 [3]: 14 µM (active)
IC50 [4]: > 66.6 µM (inactive)
EC50 [5]: 10.8 µM (active)
IC50 [6]: > 100 µM (inactive)
IC50 [7]: 4.59 µM (active)

O=c1c2ccccc2nc(/C=C/c2ccc(O)cc2)n1Cc1ccccc1
IC50 (Hexokinase-1): > 80 µM (inactive)
IC50 (Hexokinase HKDC1): > 80 µM (inactive)
